What was measured:
[1] = test system: Pseudocercosporella herpotrichoides; assay: Activity against wheat eyespot in-vitro (PHI); type: cell-based; conditions: 10 ppm, 10 days, 20° C., mycelial growth
How it was run: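 P. herpotrichoides mycelial fragments (5×10^4/ml) grown in half-strength PDB with compound at 10 ppm final, added from acetone. Incubated 10 days at 20 °C; mycelial growth rated against untreated or diluent controls.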

[2] = test system: Rhizoctonia solani; assay: Activity against Rhizoctonia in-vitro (RSI); type: cell-based; conditions: 10 ppm, 10 days, 20° C., mycelial growth
How it was run: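 R. solani mycelial fragments (5×10^4/ml) in half-strength Potato Dextrose Broth with compound added from acetone to 10 ppm final. Mycelial growth assessed after 10 days at 20° C, rated against untreated or diluent control.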

[3] = test system: Erysiphe graminis f.sp. hordei; assay: Activity against barley powdery mildew, direct therapeutic (EGT); type: in vivo; conditions: direct therapeutic foliar spray, 600 ppm, up to 7 days
How it was run: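 Barley seedlings (cv. Golden Promise, single-leaf stage) were dusted with mildew conidia one day before a therapeutic foliar spray of 600 ppm compound. Plants were kept at 18 °C and 40% humidity for up to 7 days, and sporulating leaf area was rated against untreated or diluent-sprayed controls.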

[4] = test system: Alternaria solani; assay: Activity against tomato early blight (AS); type: in vivo; conditions: Table VI; tomato seedlings, contact prophylactic foliar spray, 4 days
How it was run: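 Foliar contact prophylactic spray on tomato seedlings (cv Outdoor Girl, second true leaf expanded) in acetone/water 50:50 with 0.04% Tween 20; 24 h at 20° C, 40% R.H., then inoculation with 10^4 spores/ml A. solani conidia. Kept moist at 21° C; lesion cover rated 4 days post-inoculation against untreated or diluent-sprayed controls.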

[5] = test system: Pyricularia oryzae; type: in vivo; conditions: rice seedlings, direct therapeutic foliar spray, 600 ppm, 4-5 days
[6] = test system: Venturia inaequalis; assay: Activity against apple scab in-vitro (VII); type: cell-based; conditions: 10 ppm, 10 days, 20° C., mycelial growth
How it was run: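 Compound in acetone was tested at 10 ppm final in half-strength Potato Dextrose Broth inoculated with V. inaequalis mycelial fragments and spores at 5×10^4 propagules/ml. After 10 days at 20° C, mycelial growth was rated against untreated or diluent controls.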

[7] = test system: Erysiphe graminis f.sp. hordei; assay: Direct protectant activity against barley powdery mildew (EGP); type: in vivo; conditions: direct protectant foliar spray, 8 days
How it was run: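 Barley seedlings (cv Golden Promise, single-leaf stage) were foliar-sprayed, held 24 h at 18 °C/40% RH, then dusted with mildew conidia. After 8 days at 18 °C/40% RH, sporulating leaf area was scored as a rating against untreated or diluent-sprayed controls.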

[8] = test system: Botrytis cinerea; assay: Direct protectant activity against broad bean grey mould (BCB); type: in vivo; conditions: direct protectant foliar spray, 600 ppm, 4 days
How it was run: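 Broad bean plants (cv The Sutton, two leaf pairs) sprayed on upper leaf surfaces at 600 ppm, then inoculated 24 h later with 10^6 conidia/ml. Kept 4 days at 22 °C, high humidity; disease control rated from % leaf area with lesions against untreated or diluent controls.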

[9] = test system: Phytophthora infestans; type: in vivo; conditions: tomato, direct protectant foliar spray
[10] = test system: Plasmopara viticola; assay: Antisporulant activity against vine downy mildew (PVA); type: in vivo; conditions: vine leaves, antisporulant foliar spray, 600 ppm, 750 l/ha
How it was run: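 Cabernet Sauvignon vines (~8 cm) inoculated on lower leaf surfaces with 5×10^4 zoosporangia/ml, held 24 h at 21° C high humidity then 24 h glasshouse. Infected leaves sprayed underside with 600 ppm compound in 1:1 water/acetone, 0.04% Tween 20, 750 l/ha; 96 h glasshouse, 24 h humidity. Sporulating leaf area rated versus control.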

[11] = test system: Leptosphaeria nodorum; assay: Activity against wheat leafspot (LN); type: in vivo; conditions: direct therapeutic foliar spray, 600 ppm, 6-8 days
How it was run: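 Wheat cv Norman at single-leaf stage spray-inoculated with 1.5×10^6 conidia/ml, held 24 h at high humidity, then sprayed therapeutically with test compound at 600 ppm. Kept 6-8 days at 22° C, 70% humidity; lesion density per leaf rated against untreated or diluent-sprayed controls.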

| Compound | disease control rating PHI [1] | disease control rating RSI [2] | disease control rating EGT [3] | disease control rating AS [4] | disease control rating PO [5] | disease control rating VII [6] | disease control rating EGP [7] | disease control rating BCB [8] | disease control rating PIP [9] | disease control rating PVA [10] | disease control rating LN [11] |
| --- | --- | --- | --- | --- | --- | --- | --- | --- | --- | --- | --- |
| CN(CC(C)(C)C)C1COC2(CCC(C(C)(C)C)CC2)C1 (stereo not shown) [Compound 131] | 0 (less than 50% disease control) | 0 (less than 50% disease control) | 2 (greater than 80% disease control) | 0 (less than 50% disease control) | 0 (less than 50% disease control) | 1 (about 50-80% disease control) | 2 (greater than 80% disease control) | 0 (less than 50% disease control) | 0 (less than 50% disease control) | 0 (less than 50% disease control) | 0 (less than 50% disease control) |
| CCN(CC(C)(C)C)C1COC2(CCC(C(C)(C)C)CC2)C1 (stereo not shown) [Compound 132] | 0 (less than 50% disease control) | 0 (less than 50% disease control) | 2 (greater than 80% disease control) | 0 (less than 50% disease control) | 0 (less than 50% disease control) | 1 (about 50-80% disease control) | 2 (greater than 80% disease control) | 0 (less than 50% disease control) | 0 (less than 50% disease control) | 0 (less than 50% disease control) | 0 (less than 50% disease control) |
| CCCN(CC(C)(C)C)C1COC2(CCC(C(C)(C)C)CC2)C1 (stereo not shown) [Compound 133] | 0 (less than 50% disease control) | 0 (less than 50% disease control) | 2 (greater than 80% disease control) | 0 (less than 50% disease control) | 0 (less than 50% disease control) | 1 (about 50-80% disease control) | 2 (greater than 80% disease control) | 0 (less than 50% disease control) | 0 (less than 50% disease control) | 0 (less than 50% disease control) | 0 (less than 50% disease control) |
| CC(C)(C)CNC1COC2(CCC(C(C)(C)C)CC2)C1 (stereo not shown) [Compound 134] | 0 (less than 50% disease control) | 0 (less than 50% disease control) | 2 (greater than 80% disease control) | 0 (less than 50% disease control) | 0 (less than 50% disease control) | 0 (less than 50% disease control) | 2 (greater than 80% disease control) | 0 (less than 50% disease control) | 0 (less than 50% disease control) | 0 (less than 50% disease control) | 0 (less than 50% disease control) |
| CC(C)CNC1COC2(CCC(C(C)(C)CC(C)(C)C)CC2)C1 (stereo not shown) [Compound 137] | 2 (greater than 80% disease control) | 2 (greater than 80% disease control) | 2 (greater than 80% disease control) | 0 (less than 50% disease control) | 0 (less than 50% disease control) | 1 (about 50-80% disease control) | 2 (greater than 80% disease control) | 0 (less than 50% disease control) | 0 (less than 50% disease control) | 0 (less than 50% disease control) | 2 (greater than 80% disease control) |
| CC(C)(C)C1CCC2(CC1)CC(NC1CCC3CCCCC3C1)CO2 (stereo not shown) [Compound 138] | 0 (less than 50% disease control) | 0 (less than 50% disease control) | 0 (less than 50% disease control) | 0 (less than 50% disease control) | 0 (less than 50% disease control) | 0 (less than 50% disease control) | 0 (less than 50% disease control) | 0 (less than 50% disease control) | 2 (greater than 80% disease control) | 0 (less than 50% disease control) | 0 (less than 50% disease control) |
| CC(C)CNC1COC2(CCC(C(C)(C)C3CCCCC3)CC2)C1 (stereo not shown) [Compound 139] | 2 (greater than 80% disease control) | 0 (less than 50% disease control) | 2 (greater than 80% disease control) | 0 (less than 50% disease control) | 0 (less than 50% disease control) | 2 (greater than 80% disease control) | 2 (greater than 80% disease control) | 0 (less than 50% disease control) | 0 (less than 50% disease control) | 0 (less than 50% disease control) | 1 (about 50-80% disease control) |
| CCCCCCN(C)C1COC2(CCC(C(C)(C)C3CCCCC3)CC2)C1 (stereo not shown) [Compound 140] | 2 (greater than 80% disease control) | 2 (greater than 80% disease control) | 2 (greater than 80% disease control) | 0 (less than 50% disease control) | 0 (less than 50% disease control) | 2 (greater than 80% disease control) | 2 (greater than 80% disease control) | 0 (less than 50% disease control) | 0 (less than 50% disease control) | 0 (less than 50% disease control) | 1 (about 50-80% disease control) |
